# Results as given in ChEMBL document CHEMBL3045745, “Antioxidant activity and inhibition effect on the growth of human colon carcinoma (HT-29) cells of esculetin from Cortex Fraxini” (Med Chem Res, 2011).
# The source made the active and inactive calls. No cut-off for these calls is given here.
# Assays:
# [1] = Antioxidant activity assessed as reduction of Mo(6) in phophomolybdenum at 0.5 mg/ml after 150 min by spectrophotometric analysis; assay type: functional
# [2] = Antioxidant activity assessed as potassium ferricyanide reduction at 0.5 mg/ml after 20 min by spectrophotometric analysis; assay type: functional
# [3] = Antioxidant activity assessed as potassium ferricyanide reduction at 0.05 mg/ml after 20 min by spectrophotometric analysis; assay type: functional
# [4] = Antioxidant activity assessed as hydroxyl radical scavenging by resonance scattering method; assay type: functional
# [5] = system: Radical scavenging activity; assay: Antioxidant activity assessed as DPPH radical scavenging at 0.5 mg/ml measured at 50 min by spectrophotometric analysis relative to control; assay type: functional
# HT-29 [6] = assay: Growth inhibition of Homo sapiens (human) HT-29 cells assessed as inhibition of [3H]hypoxanthine incorporation at higher concentration incubated for 18 hr prior to [3H]hypoxanthine addition measured after 4 to 6 hr; assay type: functional, cell-based
# HT-29 [7] = assay: Induction of Homo sapiens (human) HT-29 cell proliferation assessed as [3H]hypoxanthine incorporation at 0.25 to 2 mg/ml incubated for 18 hr prior to [3H]hypoxanthine addition measured after 4 to 6 hr; assay type: cell-based
# [8] = Antioxidant activity assessed as reduction of Mo(6) in phophomolybdenum at 0.1 mg/ml after 150 min by spectrophotometric analysis; assay type: functional
# [9] = system: Radical scavenging activity; assay: Antioxidant activity assessed as DPPH radical scavenging at 0.08 mg/ml measured at 50 min by spectrophotometric analysis relative to control; assay type: functional
# [10] = system: Radical scavenging activity; assay: Antioxidant activity assessed as DPPH radical scavenging at 0.05 mg/ml measured at 50 min by spectrophotometric analysis relative to control; assay type: functional
# [11] = system: Radical scavenging activity; assay: Antioxidant activity assessed as DPPH radical scavenging at 0.02 mg/ml measured at 50 min by spectrophotometric analysis relative to control; assay type: functional
# [12] = system: Radical scavenging activity; assay: Antioxidant activity assessed as DPPH radical scavenging at 0.02 to 0.1 mg/ml measured within 10 min by spectrophotometric analysis; assay type: functional
IC50 [4] [µg/mL],Compound,Activity [1],Activity [2],Activity [3],Activity [5] [%],growth inhibition (GI) (HT-29 [6]),Activity (HT-29 [7]),Activity [8],Activity [9] [%],Activity [10] [%],Activity [11] [%],Activity [12]
2.883,Cc1cc(C(C)(C)C)c(O)c(C(C)(C)C)c1 [BUTYLATED HYDROXYTOLUENE],Active,Active,Active,47.6,–,–,–,–,–,–,–
0.091,O=c1ccc2cc(O)c(O)cc2o1 [ESCULETIN],–,Active,Active,–,Dose-dependent effect,Toxic,Active,79.7,59.9,28.1,Active
